Measurements as given in patent US20260248134A1, “A METHOD FOR CONTROLLING WEEDS” (UPL MAURITIUS LIMITED, priority 2023, published 2026).

Columns and labels:
Assay type in all cases: in vivo
Brachiaria plantaginea = experiment: Control of weeds at post-emergence stage (Example 10)
Description: (§1) The effect of application of asulam was observed on the growth of weeds at post-emergence stage for different application rates. The percentage (%) control of weeds has been evaluated and disclosed in Table 10.

Bidens pilosa = experiment: as above
Description: as §1

Cynodon dactylon = experiment: as above
Description: as §1

Digitaria nuda = experiment: as above
Description: as §1

Ipomoea hederifolia = experiment: Control of Ipomoea hederifolia weed at different application rates (Example 6)
Description: The effect of application of asulam was observed on the growth of Ipomoea hederifolia weed at 21, 28 and 35 DAA (days after application) at different application rates. The percentage (%) control of weeds has been evaluated and disclosed in Table 6.

Raphanus raphanistrum = experiment: Control of Raphanus raphanistrum weed by asulam alone, with adjuvant, with additional herbicide (Example 2); settings: 4500 g a.i/ha
Protocol: The effect of application of asulam alone, asulam along with an adjuvant, and asulam along with an additional herbicide was observed on the growth of Raphanus raphanistrum weed at 42, 49, 56 and 63 DAA (days after application). The percentage (%) control of weeds was evaluated to assess the efficacy of the compositions and the same has been disclosed in Table 2. Untreated control was also compared, wherein no herbicidal composition was applied and thus, no control of weeds was observed.

Megathyrsus maximus = experiment: Control of Megathyrsus maximus weed at different application rates (Example 5)
Description: The effect of application of asulam was observed on the growth of Megathyrsus maximus weed at 14 and 21 DAA (days after application) at different application rates. The percentage (%) control of weeds has been evaluated and disclosed in Table 5.

Ambrosia artemisifolia = experiment: Control of Ambrosia artemisifolia weed at different application rates (Example 4)
Description: The effect of application of asulam was observed on the growth of Ambrosia artemisifolia weed at 28, 35 and 49 DAA (days after application) at different application rates. The percentage (%) control of weeds has been evaluated and disclosed in Table 4.

Digitaria insularis = experiment: Control of weeds at pre-emergence stage (Example 9)
Description: (§2) The effect of application of asulam was observed on the growth of weeds at pre-emergence stage for different application rates. The percentage (%) control of weeds has been evaluated and disclosed in Table 9.

Eleusine indica = experiment: as above
Description: as §2

COC(=O)NS(=O)(=O)c1ccc(N)cc1 [Asulam, asulam]
85%: Control of Ipomoea hederifolia (Ipomoea hederifolia; 2250 g a.i/ha, 35 DAA) | Control of Megathyrsus maximus (Megathyrsus maximus; 3200 g a.i/ha, 21 DAA) | Control of Megathyrsus maximus (Megathyrsus maximus; 4000 g a.i/ha, 21 DAA)
70%: Control of Ipomoea hederifolia (Ipomoea hederifolia; 2500 g a.i/ha, 21 DAA)
88%: percentage (%) control of weeds (Brachiaria plantaginea; 2250 g a.i/ha, 35 DAA) | Control of Ipomoea hederifolia (Ipomoea hederifolia; 2500 g a.i/ha, 35 DAA) | percentage (%) control of weeds (Eleusine indica; 1500 g a.i/ha, 28 DAA) | percentage (%) control of weeds (Eleusine indica; 1500 g a.i/ha, 35 DAA)
96%: percentage (%) control of weeds (Cynodon dactylon; 2800 g a.i/ha, 28 DAA) | percentage (%) control of weeds (Cynodon dactylon; 3200 g a.i/ha, 49 DAA) | percentage (%) control of weeds (Cynodon dactylon; 4000 g a.i/ha, 35 DAA) | percentage (%) control of weeds (Digitaria nuda; 3200 g a.i/ha, 28 DAA)
86%: Control of Megathyrsus maximus (Megathyrsus maximus; 3600 g a.i/ha, 21 DAA) | Control of Ambrosia Artemisifolia (Ambrosia artemisifolia; 1200 g a.i/ha, 28 DAA)
94%: percentage (%) control of weeds (Bidens pilosa; 1800 g a.i/ha, 28 DAA) | percentage (%) control of weeds (Bidens pilosa; 2250 g a.i/ha, 49 DAA) | percentage (%) control of weeds (Cynodon dactylon; 2400 g a.i/ha, 28 DAA) | percentage (%) control of weeds (Cynodon dactylon; 3200 g a.i/ha, 28 DAA) | percentage (%) control of weeds (Cynodon dactylon; 3200 g a.i/ha, 35 DAA) | percentage (%) control of weeds (Digitaria nuda; 4000 g a.i/ha, 35 DAA) | percentage (%) control of weeds (Digitaria nuda; 4000 g a.i/ha, 49 DAA) | Control of Ambrosia Artemisifolia (Ambrosia artemisifolia; 2250 g a.i/ha, 35 DAA) | percentage (%) control of weeds (Digitaria insularis; 1000 g a.i/ha, 28 DAA)
97%: percentage (%) control of weeds (Bidens pilosa; 1800 g a.i/ha, 35 DAA) | percentage (%) control of weeds (Bidens pilosa; 1800 g a.i/ha, 49 DAA) | percentage (%) control of weeds (Cynodon dactylon; 2400 g a.i/ha, 35 DAA) | percentage (%) control of weeds (Cynodon dactylon; 2800 g a.i/ha, 35 DAA)
95%: percentage (%) control of weeds (Brachiaria plantaginea; 2250 g a.i/ha, 28 DAA) | percentage (%) control of weeds (Bidens pilosa; 2250 g a.i/ha, 35 DAA) | percentage (%) control of weeds (Cynodon dactylon; 4000 g a.i/ha, 28 DAA)
100%: percentage (%) control of weeds (Brachiaria plantaginea; 2500 g a.i/ha, 49 DAA) | percentage (%) control of weeds (Bidens pilosa; 1000 g a.i/ha, 28 DAA) | percentage (%) control of weeds (Bidens pilosa; 1000 g a.i/ha, 35 DAA) | percentage (%) control of weeds (Bidens pilosa; 1000 g a.i/ha, 49 DAA) | percentage (%) control of weeds (Bidens pilosa; 1500 g a.i/ha, 28 DAA) | percentage (%) control of weeds (Bidens pilosa; 1500 g a.i/ha, 35 DAA) | percentage (%) control of weeds (Bidens pilosa; 1500 g a.i/ha, 49 DAA) | percentage (%) control of weeds (Cynodon dactylon; 2800 g a.i/ha, 49 DAA) | percentage (%) control of weeds (Cynodon dactylon; 4000 g a.i/ha, 49 DAA) | percentage (%) control of weeds (Digitaria nuda; 3200 g a.i/ha, 35 DAA) | percentage (%) control of weeds (Digitaria nuda; 3200 g a.i/ha, 49 DAA) | percentage (%) control of weeds (Digitaria insularis; 1000 g a.i/ha, 49 DAA) | percentage (%) control of weeds (Digitaria insularis; 1200 g a.i/ha, 35 DAA) | percentage (%) control of weeds (Digitaria insularis; 1200 g a.i/ha, 49 DAA) | percentage (%) control of weeds (Digitaria insularis; 1500 g a.i/ha, 35 DAA) | percentage (%) control of weeds (Digitaria insularis; 1500 g a.i/ha, 49 DAA) | percentage (%) control of weeds (Digitaria insularis; 1800 g a.i/ha, 35 DAA) | percentage (%) control of weeds (Digitaria insularis; 1800 g a.i/ha, 49 DAA) | percentage (%) control of weeds (Digitaria insularis; 2250 g a.i/ha, 28 DAA) | percentage (%) control of weeds (Digitaria insularis; 2250 g a.i/ha, 35 DAA) | percentage (%) control of weeds (Digitaria insularis; 2250 g a.i/ha, 49 DAA) | percentage (%) control of weeds (Digitaria insularis; 2500 g a.i/ha, 35 DAA) | percentage (%) control of weeds (Digitaria insularis; 2500 g a.i/ha, 49 DAA) | percentage (%) control of weeds (Eleusine indica; 1800 g a.i/ha, 49 DAA) | percentage (%) control of weeds (Eleusine indica; 2250 g a.i/ha, 49 DAA) | percentage (%) control of weeds (Eleusine indica; 2500 g a.i/ha, 49 DAA)
80%: Control of Megathyrsus maximus (Megathyrsus maximus; 3600 g a.i/ha, 14 DAA)
66.3%: Control of Raphanus raphanistrum (Raphanus raphanistrum; 56 DAA)
71%: Control of Ipomoea hederifolia (Ipomoea hederifolia; 2250 g a.i/ha, 21 DAA)
71.3%: Control of Raphanus raphanistrum (Raphanus raphanistrum; 42 DAA)
76%: Control of Ipomoea hederifolia (Ipomoea hederifolia; 1800 g a.i/ha, 35 DAA) | Control of Megathyrsus maximus (Megathyrsus maximus; 4000 g a.i/ha, 14 DAA)
83%: percentage (%) control of weeds (Brachiaria plantaginea; 1800 g a.i/ha, 49 DAA) | Control of Ipomoea hederifolia (Ipomoea hederifolia; 2250 g a.i/ha, 28 DAA) | percentage (%) control of weeds (Eleusine indica; 1200 g a.i/ha, 28 DAA)
91%: Control of Ambrosia Artemisifolia (Ambrosia artemisifolia; 1500 g a.i/ha, 28 DAA) | Control of Ambrosia Artemisifolia (Ambrosia artemisifolia; 1500 g a.i/ha, 49 DAA) | percentage (%) control of weeds (Eleusine indica; 1800 g a.i/ha, 35 DAA) | percentage (%) control of weeds (Eleusine indica; 2500 g a.i/ha, 28 DAA)
99%: percentage (%) control of weeds (Cynodon dactylon; 2400 g a.i/ha, 49 DAA) | percentage (%) control of weeds (Digitaria nuda; 2800 g a.i/ha, 28 DAA) | percentage (%) control of weeds (Digitaria nuda; 2800 g a.i/ha, 35 DAA) | percentage (%) control of weeds (Digitaria nuda; 2800 g a.i/ha, 49 DAA) | Control of Ambrosia Artemisifolia (Ambrosia artemisifolia; 2250 g a.i/ha, 49 DAA) | Control of Ambrosia Artemisifolia (Ambrosia artemisifolia; 2500 g a.i/ha, 49 DAA) | percentage (%) control of weeds (Digitaria insularis; 1500 g a.i/ha, 28 DAA) | percentage (%) control of weeds (Digitaria insularis; 1800 g a.i/ha, 28 DAA) | percentage (%) control of weeds (Digitaria insularis; 2500 g a.i/ha, 28 DAA) | percentage (%) control of weeds (Eleusine indica; 1200 g a.i/ha, 49 DAA) | percentage (%) control of weeds (Eleusine indica; 1500 g a.i/ha, 49 DAA)
77%: Control of Ipomoea hederifolia (Ipomoea hederifolia; 1800 g a.i/ha, 28 DAA)
87%: Control of Ambrosia Artemisifolia (Ambrosia artemisifolia; 1200 g a.i/ha, 35 DAA)
79%: Control of Megathyrsus maximus (Megathyrsus maximus; 3200 g a.i/ha, 14 DAA)
84%: Control of Ipomoea hederifolia (Ipomoea hederifolia; 2500 g a.i/ha, 28 DAA)
90%: Control of Ambrosia Artemisifolia (Ambrosia artemisifolia; 1200 g a.i/ha, 49 DAA) | Control of Ambrosia Artemisifolia (Ambrosia artemisifolia; 1500 g a.i/ha, 35 DAA) | percentage (%) control of weeds (Eleusine indica; 1800 g a.i/ha, 28 DAA)
73%: percentage (%) control of weeds (Brachiaria plantaginea; 2250 g a.i/ha, 49 DAA)
98%: percentage (%) control of weeds (Digitaria insularis; 1000 g a.i/ha, 35 DAA) | percentage (%) control of weeds (Digitaria insularis; 1200 g a.i/ha, 28 DAA)
63%: Control of Ipomoea hederifolia (Ipomoea hederifolia; 1800 g a.i/ha, 21 DAA)
93%: percentage (%) control of weeds (Brachiaria plantaginea; 2500 g a.i/ha, 28 DAA) | percentage (%) control of weeds (Bidens pilosa; 2250 g a.i/ha, 28 DAA) | percentage (%) control of weeds (Digitaria nuda; 4000 g a.i/ha, 28 DAA) | Control of Ambrosia Artemisifolia (Ambrosia artemisifolia; 2250 g a.i/ha, 28 DAA) | Control of Ambrosia Artemisifolia (Ambrosia artemisifolia; 2500 g a.i/ha, 35 DAA) | percentage (%) control of weeds (Eleusine indica; 2250 g a.i/ha, 35 DAA)
92%: percentage (%) control of weeds (Brachiaria plantaginea; 1800 g a.i/ha, 28 DAA) | percentage (%) control of weeds (Brachiaria plantaginea; 1800 g a.i/ha, 35 DAA) | percentage (%) control of weeds (Brachiaria plantaginea; 2500 g a.i/ha, 35 DAA) | Control of Ambrosia Artemisifolia (Ambrosia artemisifolia; 2500 g a.i/ha, 28 DAA) | percentage (%) control of weeds (Eleusine indica; 2250 g a.i/ha, 28 DAA) | percentage (%) control of weeds (Eleusine indica; 2500 g a.i/ha, 35 DAA)
68.8%: Control of Raphanus raphanistrum (Raphanus raphanistrum; 49 DAA)
78%: percentage (%) control of weeds (Eleusine indica; 1200 g a.i/ha, 35 DAA)
